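Briefly, cells in 96-well plates were exposed to five compound concentrations for 48 h, and endpoints were estimated by linear interpolation. TGI denotes the concentration required for complete inhibition of growth.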
Key:
Test in all cases: growth of human tumour cells (NCI), 48 h
OVCAR-3 ovarian = test system: OVCAR-3 ovarian
CAKI-1 renal = test system: CAKI-1 renal
HL-60(TB) leukemia = test system: HL-60(TB) leukemia
RXF 393 renal = test system: RXF 393 renal
SK-MEL-2 melanoma = test system: SK-MEL-2 melanoma
BT-549 breast = test system: BT-549 breast
UO-31 renal = test system: UO-31 renal
SF-268 CNS = test system: SF-268 CNS
KM12 colon = test system: KM12 colon
HOP-62 NSCLC = test system: HOP-62 NSCLC
M14 melanoma = test system: M14 melanoma
HT29 colon = test system: HT29 colon
HCC-2998 colon = test system: HCC-2998 colon
CCRF-CEM leukemia = test system: CCRF-CEM leukemia
EKVX NSCLC = test system: EKVX NSCLC
U251 CNS = test system: U251 CNS
MCF7 breast = test system: MCF7 breast
NCI/ADR-RES ovarian = test system: NCI/ADR-RES ovarian
OVCAR-8 ovarian = test system: OVCAR-8 ovarian
SN12C renal = test system: SN12C renal
OVCAR-5 ovarian = test system: OVCAR-5 ovarian
IGROV1 ovarian = test system: IGROV1 ovarian
UACC-257 melanoma = test system: UACC-257 melanoma
ACHN renal = test system: ACHN renal
MDA-N = test system: MDA-N
MDA-MB-231 breast = test system: MDA-MB-231 breast
SF-539 CNS = test system: SF-539 CNS
NCI-H23 lung = test system: NCI-H23 lung
SW-620 colon = test system: SW-620 colon
MDA-MB-435 = test system: MDA-MB-435
HCT-116 colon = test system: HCT-116 colon
UACC-62 melanoma = test system: UACC-62 melanoma
SK-MEL-5 melanoma = test system: SK-MEL-5 melanoma
LOX IMVI melanoma = test system: LOX IMVI melanoma
NCI-H226 lung = test system: NCI-H226 lung
T-47D breast = test system: T-47D breast
K-562 leukemia = test system: K-562 leukemia
HS 578T breast = test system: HS 578T breast
COLO 205 colon = test system: COLO 205 colon
A498 renal = test system: A498 renal
SF-295 CNS = test system: SF-295 CNS
SK-MEL-28 melanoma = test system: SK-MEL-28 melanoma
786-0 renal = test system: 786-0 renal
DU-145 prostate = test system: DU-145 prostate
SNB-75 CNS = test system: SNB-75 CNS
RPMI-8226 leukemia = test system: RPMI-8226 leukemia
HCT-15 colon = test system: HCT-15 colon
SR leukemia = test system: SR leukemia
NCI-H460 lung = test system: NCI-H460 lung
MOLT-4 leukemia = test system: MOLT-4 leukemia
OVCAR-4 ovarian = test system: OVCAR-4 ovarian
PC-3 prostate = test system: PC-3 prostate
TK-10 renal = test system: TK-10 renal
NCI-H522 lung = test system: NCI-H522 lung
HOP-92 NSCLC = test system: HOP-92 NSCLC
MALME-3M melanoma = test system: MALME-3M melanoma
SNB-19 CNS = test system: SNB-19 CNS
A549 NSCLC = test system: A549 NSCLC

CCCCCCCCCCCCCCCCC(=O)NCC(=O)NCC(=O)NC(Cc1ccccc1)C(=O)Oc1ccc([N+](=O)[O-])cc1 (stereo not given) was tested, and the TGI (OVCAR-3 ovarian) was > 100 µM, the TGI (CAKI-1 renal) was 32.2 µM and the TGI (HL-60(TB) leukemia) was > 100 µM. For the same molecule, the TGI (RXF 393 renal) was 46.6 µM, the TGI (SK-MEL-2 melanoma) was > 100 µM and the TGI (BT-549 breast) was 34.2 µM. For the same molecule, the TGI (UO-31 renal) was > 100 µM, the TGI (SF-268 CNS) was 50.4 µM and the TGI (KM12 colon) was 48.8 µM. The TGI (HOP-62 NSCLC) was > 100 µM, the TGI (M14 melanoma) was 41.1 µM and the TGI (HT29 colon) was 88 µM. For the same molecule, the TGI (HCC-2998 colon) was 37.3 µM, the TGI (CCRF-CEM leukemia) was 44.9 µM and the TGI (EKVX NSCLC) was > 100 µM. The TGI (U251 CNS) was 43.3 µM, the TGI (MCF7 breast) was > 100 µM and the TGI (NCI/ADR-RES ovarian) was 42.9 µM. The TGI (OVCAR-8 ovarian) was 38.7 µM, the TGI (SN12C renal) was 34.6 µM and the TGI (OVCAR-5 ovarian) was 57.7 µM. The TGI (IGROV1 ovarian) was > 100 µM, the TGI (UACC-257 melanoma) was 57.4 µM and the TGI (ACHN renal) was > 100 µM. For the same molecule, the TGI (MDA-N) was > 100 µM, the TGI (MDA-MB-231 breast) was 38.9 µM and the TGI (SF-539 CNS) was 46.8 µM. For the same molecule, the TGI (NCI-H23 lung) was > 100 µM, the TGI (SW-620 colon) was 37.2 µM and the TGI (MDA-MB-435) was > 100 µM. For the same molecule, the TGI (HCT-116 colon) was 32.6 µM, the TGI (UACC-62 melanoma) was 40.5 µM and the TGI (SK-MEL-5 melanoma) was 47.4 µM. For the same molecule, the TGI (LOX IMVI melanoma) was 38.7 µM, the TGI (NCI-H226 lung) was 70 µM and the TGI (T-47D breast) was > 100 µM. The TGI (K-562 leukemia) was 56.6 µM, the TGI (HS 578T breast) was > 100 µM and the TGI (COLO 205 colon) was 35.8 µM. For the same molecule, the TGI (A498 renal) was > 100 µM, the TGI (SF-295 CNS) was 40.4 µM and the TGI (SK-MEL-28 melanoma) was 30.3 µM. For the same molecule, the TGI (786-0 renal) was 72.9 µM, the TGI (DU-145 prostate) was > 100 µM and the TGI (SNB-75 CNS) was > 100 µM. The TGI (RPMI-8226 leukemia) was 58.2 µM, the TGI (HCT-15 colon) was 34.5 µM and the TGI (SR leukemia) was 51.3 µM. The TGI (NCI-H460 lung) was 38.6 µM, the TGI (MOLT-4 leukemia) was 38.7 µM and the TGI (OVCAR-4 ovarian) was > 100 µM. For the same molecule, the TGI (PC-3 prostate) was 86.6 µM, the TGI (TK-10 renal) was > 100 µM and the TGI (NCI-H522 lung) was 55.2 µM. For the same molecule, the TGI (HOP-92 NSCLC) was > 100 µM.

CCOC(=O)CCC(NC(=O)C(CCC(=O)OCC)NC(=O)C(Cc1ccc([N+](=O)[O-])cc1)NC(C)=O)C(=O)NNC(=O)OC(C)(C)C (stereo not given) was tested, and the TGI (HL-60(TB) leukemia) was > 100 µM, the TGI (RXF 393 renal) was 32.9 µM and the TGI (SK-MEL-2 melanoma) was > 100 µM. The TGI (BT-549 breast) was > 100 µM, the TGI (UO-31 renal) was > 100 µM and the TGI (KM12 colon) was > 100 µM. The TGI (HOP-62 NSCLC) was > 100 µM, the TGI (M14 melanoma) was > 100 µM and the TGI (HT29 colon) was > 100 µM. For the same molecule, the TGI (HCC-2998 colon) was > 100 µM, the TGI (MALME-3M melanoma) was > 100 µM and the TGI (EKVX NSCLC) was > 100 µM. For the same molecule, the TGI (U251 CNS) was > 100 µM, the TGI (MCF7 breast) was > 100 µM and the TGI (OVCAR-8 ovarian) was > 100 µM. The TGI (SN12C renal) was > 100 µM, the TGI (OVCAR-5 ovarian) was > 100 µM and the TGI (IGROV1 ovarian) was > 100 µM. For the same molecule, the TGI (UACC-257 melanoma) was > 100 µM, the TGI (ACHN renal) was > 100 µM and the TGI (MDA-N) was > 100 µM. The TGI (MDA-MB-231 breast) was > 100 µM, the TGI (NCI-H23 lung) was > 100 µM and the TGI (SW-620 colon) was > 100 µM. For the same molecule, the TGI (SNB-19 CNS) was > 100 µM, the TGI (HCT-116 colon) was > 100 µM and the TGI (UACC-62 melanoma) was > 100 µM. The TGI (SK-MEL-5 melanoma) was > 100 µM, the TGI (NCI-H226 lung) was > 100 µM and the TGI (T-47D breast) was > 100 µM. For the same molecule, the TGI (K-562 leukemia) was > 100 µM, the TGI (HS 578T breast) was > 100 µM and the TGI (A549 NSCLC) was > 100 µM. For the same molecule, the TGI (COLO 205 colon) was > 100 µM, the TGI (A498 renal) was > 100 µM and the TGI (SK-MEL-28 melanoma) was > 100 µM. For the same molecule, the TGI (786-0 renal) was > 100 µM, the TGI (SNB-75 CNS) was > 100 µM and the TGI (RPMI-8226 leukemia) was > 100 µM. The TGI (HCT-15 colon) was > 100 µM, the TGI (NCI-H460 lung) was > 100 µM and the TGI (MOLT-4 leukemia) was > 100 µM. For the same molecule, the TGI (PC-3 prostate) was > 100 µM, the TGI (TK-10 renal) was > 100 µM and the TGI (HOP-92 NSCLC) was > 100 µM.
